This note sets out measurements from ChEMBL document CHEMBL5634141 (Eur J Med Chem, 2023).

Data set [1] relates to von Hippel-Lindau disease tumor suppressor/GTPase KRas (Homo sapiens), P01116+P40337 [G12C]. As to the kind of experiment: (§1) PROTAC activity at VHL/KRAS G12C mutant in human NCI-H358 cells assessed as induction of protein degradation incubated for 72 hrs by Western blot analysis. It is filed as cell-based.
The target of data set [2] is von Hippel-Lindau disease tumor suppressor/GTPase KRas (Homo sapiens, UniProt P01116+P40337, G12C). Described as §1. It is filed as cell-based.
von Hippel-Lindau disease tumor suppressor/GTPase KRas, sequence (P01116 whole entry G12C, stated change not applied): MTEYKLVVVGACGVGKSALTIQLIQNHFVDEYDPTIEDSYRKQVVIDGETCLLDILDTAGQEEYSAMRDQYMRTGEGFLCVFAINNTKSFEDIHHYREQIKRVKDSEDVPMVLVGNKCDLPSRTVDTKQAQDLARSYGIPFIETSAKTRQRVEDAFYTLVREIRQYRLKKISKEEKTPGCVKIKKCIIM
von Hippel-Lindau disease tumor suppressor/GTPase KRas, sequence (P40337 whole entry partner, stated change not applied): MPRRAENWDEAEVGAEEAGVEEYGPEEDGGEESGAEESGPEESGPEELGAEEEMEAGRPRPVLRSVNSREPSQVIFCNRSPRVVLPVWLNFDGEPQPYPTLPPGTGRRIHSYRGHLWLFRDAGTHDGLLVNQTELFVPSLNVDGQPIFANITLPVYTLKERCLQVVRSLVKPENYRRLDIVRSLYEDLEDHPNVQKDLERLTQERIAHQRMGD
Data set [3] deals with von Hippel-Lindau disease tumor suppressor/GTPase KRas (Homo sapiens), P01116+P40337 [G12C]. As to the kind of experiment: PROTAC activity at VHL/KRAS G12C mutant in human MIA PaCa-2 cells assessed as induction of protein degradation at 300 nM incubated for 6 hrs by Western blotting analysis relative to control. In kind it is cell-based.
For data set [4] the test system is unchanged. Nature of the data set: Protac activity at VHL/KRAS G12C mutant in human MIA PaCa-2 cells assessed as induction of protein degradation in presence of VH032 by Western blot analysis. It is filed as cell-based.
Data set [5] deals with NCI-H358. Nature of the data set: Inhibition of cell migration in human NCI-H358 cells incubated for 12 hrs by wound healing assay. It is filed as functional, cell-based. To be noted: dose 30-300 nM.
In data set [6] the test system is NCI-H358. As to the kind of experiment: Induction of apoptosis in human NCI-H358 cells assessed as viable cells at 300 nM incubated for 48 hrs by Annexin V-FITC staining based flow cytometry analysis (reference value: 91.6 %). Conditions: read-out: Activity. It is filed as functional.
Data set [7] relates to MIA PaCa-2. Nature of the data set: Induction of apoptosis in human MIA PaCa-2 cells assessed as viable cells at 30 nM incubated for 48 hrs by Annexin V-FITC staining based flow cytometry analysis (reference value: 91.5 %). It is filed as functional. To be noted: read-out: Activity.
The subject of data set [8] is MIA PaCa-2. As to the kind of experiment: Induction of apoptosis in human MIA PaCa-2 cells assessed as late apoptotic cells at 100 nM incubated for 48 hrs by Annexin V-FITC staining based flow cytometry analysis (reference value: 5.69 %). In kind it is functional.
Data set [9] in a line: AUC (0 to t) in ICR mouse at 2 mg/kg, iv measured after 24 hrs by LC-MS/MS analysis. In kind it is ADME, organism-based. Conditions: in vivo.
The nature of data set [10]: AUC (0 to infinity) in ICR mouse at 30 mg/kg, ip measured after 24 hrs by LC-MS/MS analysis. In kind it is ADME, organism-based. To be noted: in vivo.
Data set [11] has as its system NCI-H358. Nature of the data set: Antiproliferative activity against human NCI-H358 cells expressing KRAS G12C mutant assessed as relative cell viability at 30 nM incubated for 72 hrs by CCK-8 assay. In kind it is functional. Conditions: read-out: Activity.
The test system of data set [12] is Calu-1. As to the kind of experiment: Antiproliferative activity against human Calu-1 cells expressing KRAS G12C mutant assessed as relative cell viability at 30 nM incubated for 72 hrs in presence of infigratinib by CCK-8 assay. It is filed as functional. To be noted: read-out: Activity.
The test system of data set [13] is NCI-H23. Nature of the data set: Antiproliferative activity against human NCI-H23 cells expressing KRAS G12C mutant assessed as relative cell viability at 30 nM incubated for 72 hrs in presence of crizotinib by CCK-8 assay. In kind it is functional. To be noted: read-out: Activity.
Data set [14] relates to NCI-H23. As to the kind of experiment: Antiproliferative activity against human NCI-H23 cells expressing KRAS G12C mutant assessed as relative cell viability at 30 nM incubated for 72 hrs in presence of MK-2206 by CCK-8 assay. In kind it is functional. Conditions: read-out: Activity.
Data set [15] deals with Calu-1. As to the kind of experiment: Antiproliferative activity against human Calu-1 cells expressing KRAS G12C mutant assessed as relative cell viability at 30 nM incubated for 72 hrs in presence of daclolisib by CCK-8 assay. It is filed as functional. Conditions: read-out: Activity.
In data set [16] the test system is MIA PaCa-2. Nature of the data set: Antiproliferative activity against human MIA PaCa-2 cells expressing KRAS G12C mutant assessed as relative cell viability at 30 nM incubated for 72 hrs in presence of naporafenib by CCK-8 assay. Conditions: read-out: Activity. It is filed as functional.
For data set [17], the system named is NCI-H358. Nature of the data set: Antiproliferative activity against human NCI-H358 cells expressing KRAS G12C mutant assessed as reduction of cell growth by measuring fold decrease in IC50 incubated for 72 hrs in presence of AZD4573 by CCK-8 assay. In kind it is functional.
The subject of data set [18] is NCI-H358. As to the kind of experiment: Synergistic antiproliferative activity against human NCI-H358 cells expressing KRAS G12C mutant assessed as combination index incubated for 72 hrs in presence of AZD4573 by CCK-8 assay. It is filed as functional.
For data set [19], the system named is NCI-H358. Nature of the data set: Inhibition of colony formation in human NCI-H358 cells expressing KRAS G12C mutant assessed as reduction in cell number at 30 nM incubated for 14 days in presence of SHP099 by crystal violet staining based analysis. In kind it is functional. To be noted: time 14.0 day.
The subject of data set [20] is MIA PaCa-2. Nature of the data set: Inhibition of colony formation in human MIA PaCa-2 cells expressing KRAS G12C mutant assessed as reduction in cell number at 30 nM incubated for 14 days in presence of SHP099 by crystal violet staining based analysis. In kind it is functional. Conditions: time 14.0 day.
Data set [21] in a line: Downregulation of KRAS G12C mutant expression in human NCI-H358 cells assessed as log2 of fold change at 200 nM incubated for 48 hrs by MS-based proteomic analysis. It is filed as functional.
The subject of data set [22] is von Hippel-Lindau disease tumor suppressor/GTPase KRas (Homo sapiens), P01116+P40337 [G12C]. As to the kind of experiment: PROTAC activity at VHL/KRAS G12C mutant in human NCI-H358 cells assessed as induction of protein degradation at 100 nM incubated for 1 to 8 days by Western blotting analysis. In kind it is cell-based. Conditions: time 1-8 day.
For data set [23] the test system is unchanged. Nature of the data set: PROTAC activity at VHL/KRAS G12C mutant in human NCI-H358 cells assessed as inhibition of ERK phosphorylation at 100 nM incubated for 1 to 8 days by Western blotting analysis. To be noted: time 1-8 day. It is filed as cell-based.
For data set [24] the test system is unchanged. Nature of the data set: PROTAC activity at VHL/KRAS G12C mutant in human NCI-H358 cells assessed as inhibition of AKT phosphorylation at 100 nM incubated for 1 to 8 days by Western blotting analysis. It is filed as cell-based. To be noted: time 1-8 day.

Molecules are shown by their SMILES. Calls of active or inactive are those of the source. No cut-off for these calls is given here.

As for `C=CC(=O)N1CCN(c2nc(=O)n(-c3c(C)ccnc3C(C)C)c3nc(-c4c(F)cccc4OCC4CCN(CCCC(=O)N[C@H](C(=O)N5C[C@H](O)C[C@H]5C(=O)NCc5ccc(-c6scnc6C)cc5)C(C)(C)C)CC4)c(F)cc23)[C@@H](C)C1`, the Activity result in data set [1] was “Dose-Dependent Effect”; in data set [3] it was 50%; in [8] it was 13.4%. For the same compound, the half-maximal degradation concentration (DC50) in data set [2] came to 67 nM. Also, in [4], the outcome was inactive. Further, the inhibition entry in data set [5] was “Dose-Dependent Effect”. In addition, the viability at 0.3 µM in data set [6] turned out to be 79.6%. For the same compound, the viability at 0.03 µM in [7] is 88.8%; in data set [11] it was 0.83%; in data set [12], 0.36%; in [13], 0.33%; in data set [14], 0.44%; in data set [15], 0.12%. The viability at 0.03 µM in data set [16] was 0.27%. Besides, in [9], the AUC(0-t) at 24 h is 399 ng·h/mL. In addition, the AUC(0-inf) in data set [10] came to 21100 ng·h/mL. Besides, in [17], the “fold change (FC)” value is listed as approximately 6. Further, the CI in [18] was less than 1. Further, the inhibition entry in [19] and in data set [20] was “Active” throughout. Moreover, the log2FC in data set [21] is more than 1. Besides, the outcome in data set [22], in data set [23] and in [24] was Active.
